In ChEMBL document CHEMBL1201862, “PubChem BioAssay data set” (2004):
The source made the active and inactive calls.

Key:
[1] = P. falciparum 3D7-ScDHODH growth inhibitors, dose response, SYBR Green, dry powder samples (AID 1159570); format: functional, cell-based;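 also: parasite growth measured after 72 hours of compound exposure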
[2] = HepG2 cell cytotoxicity, dose response, cytotoxicity control, plate reader, dry powder samples (AID 1159569); format: functional, cell-based;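 also: inhibitor potency with signal falling toward the positive control level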
[3] = P. falciparum Dd2 growth inhibitors, dose response, SYBR Green, dry powder samples, set 9 (AID 1159568); format: functional, cell-based
[4] = P. falciparum Dd2 growth inhibitors, dose response, SYBR Green, cherry-picked samples (AID 1159567); format: functional, cell-based
[5] = P. falciparum Dd2 growth inhibitors, dose response, SYBR Green, dry powder samples (AID 1159566); format: functional, cell-based;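 also: potency for growth inhibition with lower SYBR green DNA signal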
[6] = P. falciparum ATP4 D1247Y mutant growth inhibitors, dose response, NITD609-resistant line, SYBR Green, dry powder (AID 1159571); format: functional, cell-based;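 also: parasites synchronized at ring stage by sorbitol before testing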
[7] = target: T1, RNA-binding protein pos-1 (Caenorhabditis elegans, UniProt G5EF15); test: inhibitors of POS-1/mex-3 RNA binding, dose response, biochemical, fluorescence polarization (AID 1964);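 also: purified POS-1 fused to maltose binding protein made in E. coli; potency of compounds blocking POS-1 binding to fluorescent RNA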
T1 sequence (G5EF15 whole entry): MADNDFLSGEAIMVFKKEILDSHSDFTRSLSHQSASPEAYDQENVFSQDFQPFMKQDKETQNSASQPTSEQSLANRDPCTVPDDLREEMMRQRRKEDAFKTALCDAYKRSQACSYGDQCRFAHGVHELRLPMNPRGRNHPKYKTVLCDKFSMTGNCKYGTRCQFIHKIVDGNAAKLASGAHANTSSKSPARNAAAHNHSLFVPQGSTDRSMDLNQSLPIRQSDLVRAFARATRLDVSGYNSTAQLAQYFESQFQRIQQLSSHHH

[8] = target: T2, Zinc finger protein mex-5 (Caenorhabditis elegans, UniProt Q9XUB2); test: MEX-5/TCR-2 RNA interaction inhibitors, dose response, biochemical, C. elegans, fluorescence polarization (AID 1960)
T2 sequence (Q9XUB2 whole entry): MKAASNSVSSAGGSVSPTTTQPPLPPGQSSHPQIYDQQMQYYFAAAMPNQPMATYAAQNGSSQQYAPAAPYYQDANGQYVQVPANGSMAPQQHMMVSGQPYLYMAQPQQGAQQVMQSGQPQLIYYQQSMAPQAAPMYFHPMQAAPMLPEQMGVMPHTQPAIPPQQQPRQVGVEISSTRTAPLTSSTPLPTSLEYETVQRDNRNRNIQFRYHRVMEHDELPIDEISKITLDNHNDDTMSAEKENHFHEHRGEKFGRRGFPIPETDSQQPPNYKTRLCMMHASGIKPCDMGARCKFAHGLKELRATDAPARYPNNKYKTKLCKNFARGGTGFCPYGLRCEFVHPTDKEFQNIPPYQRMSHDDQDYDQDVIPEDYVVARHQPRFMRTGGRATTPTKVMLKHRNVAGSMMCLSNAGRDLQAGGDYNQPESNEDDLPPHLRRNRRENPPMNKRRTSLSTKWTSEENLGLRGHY

CHO = test: cytotoxicity in TLR9-MyD88 CHO cells, dose response, cytotoxicity control for TLR9-MyD88 binding inhibitor project, cell-based, luminescence (AID 588339); format: functional, hamster; conditions: Cricetulus griseus;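 also: CHO cells stably coexpressing TLR9 and MyD88 fusions from primary screen; compound exposure lasted 48 hours before viability readout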
HEK293 [9] = test: cells; conditions: Homo sapiens
HEK293 [10] = test: cells; conditions: Homo sapiens; remark: listed apart in the source
[11] = THP-1 cell cytotoxicity, dose response, cytotoxicity control for non-replicating M. tuberculosis project (AID 489025); format: functional
[12] = HepG2 cell cytotoxicity, dose response, cytotoxicity control for non-replicating M. tuberculosis project (AID 489018); format: functional; conditions: Mycobacterium tuberculosis
[13] = Vero E6 cell cytotoxicity, dose response, cytotoxicity control for non-replicating M. tuberculosis project, secondary assay (AID 492998); format: functional, VeroE6; conditions: Vero C1008
[14] = target: T3, Microphthalmia-associated transcription factor (Homo sapiens, UniProt O75030); test: TRPM1 promoter luciferase signal decrease, dose response, MITF inhibitor project, cell-based, SK-MEL-5, cherry-picked, set 3 (AID 493073); format: functional
T3 sequence (O75030 whole entry): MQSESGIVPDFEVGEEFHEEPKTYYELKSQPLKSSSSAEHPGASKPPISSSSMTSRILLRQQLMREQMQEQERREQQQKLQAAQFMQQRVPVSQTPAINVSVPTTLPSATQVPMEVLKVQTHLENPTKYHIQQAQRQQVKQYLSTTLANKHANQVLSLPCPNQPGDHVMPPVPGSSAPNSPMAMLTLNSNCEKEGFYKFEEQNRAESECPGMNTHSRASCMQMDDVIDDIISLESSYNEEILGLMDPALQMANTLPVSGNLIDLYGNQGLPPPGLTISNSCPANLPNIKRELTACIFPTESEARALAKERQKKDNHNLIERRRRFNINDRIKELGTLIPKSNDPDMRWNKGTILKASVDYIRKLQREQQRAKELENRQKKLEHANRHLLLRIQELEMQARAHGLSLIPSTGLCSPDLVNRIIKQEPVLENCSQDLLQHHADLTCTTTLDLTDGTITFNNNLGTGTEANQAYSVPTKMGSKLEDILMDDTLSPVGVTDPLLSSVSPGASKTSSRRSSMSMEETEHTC

cells = format: functional
Kallikrein-7 = Kallikrein-7 (Homo sapiens, UniProt P49862); test: Fluorescence Intensity-based biochemical primary high throughput dose response assay to identify activators of kallikrein-7 (K7) zymogen.
Sequence of Kallikrein-7 (P49862 whole entry): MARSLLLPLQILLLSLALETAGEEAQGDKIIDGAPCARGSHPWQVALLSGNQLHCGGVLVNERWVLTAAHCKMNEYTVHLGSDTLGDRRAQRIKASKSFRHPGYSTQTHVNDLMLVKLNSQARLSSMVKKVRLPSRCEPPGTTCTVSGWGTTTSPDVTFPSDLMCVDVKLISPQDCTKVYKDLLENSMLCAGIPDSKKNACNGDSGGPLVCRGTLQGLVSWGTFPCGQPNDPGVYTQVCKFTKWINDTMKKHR

Cytochrome P450 2D6 = Cytochrome P450 2D6 (Homo sapiens, UniProt P10635);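 also: CYP2D6 member of a cytochrome P450 panel assay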
Sequence of Cytochrome P450 2D6 (P10635 whole entry): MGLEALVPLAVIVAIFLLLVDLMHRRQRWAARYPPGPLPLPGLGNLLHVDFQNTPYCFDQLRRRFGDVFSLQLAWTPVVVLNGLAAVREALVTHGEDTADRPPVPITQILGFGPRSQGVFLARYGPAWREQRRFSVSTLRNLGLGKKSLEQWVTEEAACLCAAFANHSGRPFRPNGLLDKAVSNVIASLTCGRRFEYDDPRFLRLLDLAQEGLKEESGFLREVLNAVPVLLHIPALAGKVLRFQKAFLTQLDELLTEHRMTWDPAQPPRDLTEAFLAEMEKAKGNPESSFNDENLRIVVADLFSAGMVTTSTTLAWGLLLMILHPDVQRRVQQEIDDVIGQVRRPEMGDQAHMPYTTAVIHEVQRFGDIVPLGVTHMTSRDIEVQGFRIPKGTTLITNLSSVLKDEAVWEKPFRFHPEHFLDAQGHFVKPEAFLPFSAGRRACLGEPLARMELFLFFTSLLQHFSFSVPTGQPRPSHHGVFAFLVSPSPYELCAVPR

Cytochrome P450 3A4 = Cytochrome P450 3A4 (Homo sapiens, UniProt P08684);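 also: CYP3A4 tested as one member of a cytochrome P450 panel screen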
Sequence of Cytochrome P450 3A4 (P08684 whole entry): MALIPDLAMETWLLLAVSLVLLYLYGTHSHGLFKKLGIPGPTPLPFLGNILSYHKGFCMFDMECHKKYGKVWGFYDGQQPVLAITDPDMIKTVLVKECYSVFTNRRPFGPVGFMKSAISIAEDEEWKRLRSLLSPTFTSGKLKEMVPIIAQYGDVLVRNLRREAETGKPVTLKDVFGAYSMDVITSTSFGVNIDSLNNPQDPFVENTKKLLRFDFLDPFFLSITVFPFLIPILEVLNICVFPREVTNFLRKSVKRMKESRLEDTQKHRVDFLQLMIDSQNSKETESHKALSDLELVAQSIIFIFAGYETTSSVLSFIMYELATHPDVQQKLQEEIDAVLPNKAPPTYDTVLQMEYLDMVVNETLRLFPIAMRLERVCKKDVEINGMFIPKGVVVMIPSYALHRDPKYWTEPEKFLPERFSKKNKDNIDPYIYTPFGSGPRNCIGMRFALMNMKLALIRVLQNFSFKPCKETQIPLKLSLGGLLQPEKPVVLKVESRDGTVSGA

[15] = target: Voltage-gated inwardly rectifying potassium channel KCNH2 (Homo sapiens, UniProt Q12809); conditions: Potency;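 also: confirmatory quantitative high-throughput screen measuring inhibition of hERG channel activity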
Sequence of Voltage-gated inwardly rectifying potassium channel KCNH2 (Q12809 whole entry): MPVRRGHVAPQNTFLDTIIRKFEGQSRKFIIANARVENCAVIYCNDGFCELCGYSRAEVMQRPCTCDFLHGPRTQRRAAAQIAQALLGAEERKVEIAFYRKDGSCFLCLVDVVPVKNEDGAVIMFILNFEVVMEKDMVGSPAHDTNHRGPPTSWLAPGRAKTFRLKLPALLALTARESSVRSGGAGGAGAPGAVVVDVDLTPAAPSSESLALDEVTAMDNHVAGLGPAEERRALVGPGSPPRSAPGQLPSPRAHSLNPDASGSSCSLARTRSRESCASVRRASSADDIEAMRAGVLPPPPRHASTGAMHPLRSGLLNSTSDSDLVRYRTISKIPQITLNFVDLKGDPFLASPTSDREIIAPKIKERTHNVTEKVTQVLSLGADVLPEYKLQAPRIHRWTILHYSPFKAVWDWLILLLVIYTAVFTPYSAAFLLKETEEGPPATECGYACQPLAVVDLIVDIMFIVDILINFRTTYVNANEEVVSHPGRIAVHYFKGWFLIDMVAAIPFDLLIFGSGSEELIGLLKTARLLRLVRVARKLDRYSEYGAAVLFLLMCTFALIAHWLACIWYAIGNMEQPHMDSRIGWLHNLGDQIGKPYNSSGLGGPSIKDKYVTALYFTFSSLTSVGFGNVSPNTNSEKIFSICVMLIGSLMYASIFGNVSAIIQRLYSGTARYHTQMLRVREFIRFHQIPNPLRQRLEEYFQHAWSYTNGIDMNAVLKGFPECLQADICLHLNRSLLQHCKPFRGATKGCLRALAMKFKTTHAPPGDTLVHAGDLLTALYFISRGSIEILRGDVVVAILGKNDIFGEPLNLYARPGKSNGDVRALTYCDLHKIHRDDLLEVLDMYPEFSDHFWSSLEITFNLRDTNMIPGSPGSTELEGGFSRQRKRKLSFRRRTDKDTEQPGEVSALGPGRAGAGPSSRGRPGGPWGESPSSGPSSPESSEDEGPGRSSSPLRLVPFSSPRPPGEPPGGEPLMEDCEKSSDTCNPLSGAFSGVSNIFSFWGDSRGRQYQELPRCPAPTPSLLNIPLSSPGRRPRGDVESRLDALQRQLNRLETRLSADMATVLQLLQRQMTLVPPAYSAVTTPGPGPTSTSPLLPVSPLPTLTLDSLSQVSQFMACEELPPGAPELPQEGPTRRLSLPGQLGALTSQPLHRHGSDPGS

[16] = target: T4, Heat shock factor protein 1 (Mus musculus, UniProt P38532); test: HSF1 potentiators in luciferase reporter cells, confirmation, cell-based, NIH3T3, luminescence, dose retest (AID 435004); format: functional;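 also: stress induced by proteasome inhibitor MG132 added 30 min after compound; luciferase reporter driven by HSF1 response element in NIH3T3 cells; actives raise luminescence as potentiators of the MG132 stress response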
T4 sequence (P38532 whole entry): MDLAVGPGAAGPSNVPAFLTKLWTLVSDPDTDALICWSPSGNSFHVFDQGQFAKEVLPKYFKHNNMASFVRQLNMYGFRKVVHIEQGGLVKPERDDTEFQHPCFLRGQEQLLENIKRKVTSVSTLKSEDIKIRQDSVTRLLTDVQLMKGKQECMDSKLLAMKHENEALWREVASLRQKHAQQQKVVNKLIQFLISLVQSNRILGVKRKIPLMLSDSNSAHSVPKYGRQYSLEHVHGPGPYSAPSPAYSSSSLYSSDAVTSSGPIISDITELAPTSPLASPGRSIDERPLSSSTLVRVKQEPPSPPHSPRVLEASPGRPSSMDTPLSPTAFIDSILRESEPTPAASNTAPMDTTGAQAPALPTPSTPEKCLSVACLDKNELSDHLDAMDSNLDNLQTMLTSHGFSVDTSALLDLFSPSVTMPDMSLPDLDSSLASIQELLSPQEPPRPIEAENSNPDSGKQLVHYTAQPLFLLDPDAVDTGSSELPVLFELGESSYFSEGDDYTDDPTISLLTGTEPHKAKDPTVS

For `CC(C)NC(=O)N1[C@H](C#N)[C@H](c2ccc(C#CC3CCCCC3)cc2)[C@@H]1CO`, which AC50 [1] is on record?
The AC50 was 1.58 µM (active).

And the AC50 [2]?
The AC50 was 28.6 µM (active).

What about the AC50 [3] of the same molecule?
Its AC50 is 148 nM (active).

What about the AC50 [4] of the same molecule?
The AC50 was 990 nM (active).

And the AC50 [5]?
The AC50 was 495 nM (active).

What about the AC50 [6] of the same molecule?
Its AC50 is 676 nM (active).

With `Nc1ccc2nc(-c3ccccc3)c(-c3ccccc3)nc2c1` as the molecule, how does the EC50 [7] read?
Its EC50 is 23.9 µM (inconclusive).

What about the EC50 [8] of the same molecule?
The EC50 was 24.9 µM (active).

And the IC50 (CHO)?
The IC50 was > 49.7 µM (inactive).

What about the EC50 (HEK293 [9]) of the same molecule?
The EC50 was > 59.6 µM (inactive).

What about the EC50 (HEK293 [10]) of the same molecule?
Its EC50 is > 59.6 µM (inactive).

Which CC50 [11] does the source give for `Cc1onc(-c2ccccc2)c1C(=O)N/N=C/c1ccc([N+](=O)[O-])s1` here?
Its CC50 is 13.5 µM (active).

And the CC50 [12]?
The CC50 was 18.8 µM (active).

What about the CC50 [13] of the same molecule?
Its CC50 is 11.4 µM (active).

What about the AC50 [14] of the same molecule?
The AC50 was 5.35 µM (active).

And the IC50 (cells)?
Its IC50 is 14.9 µM (active).

With `CCOC(=O)N1CCC2(CC1)NC(=O)c1ccccc1N2` as the molecule, how does the EC50 (Kallikrein-7) read?
Its EC50 is > 69.5 µM (inactive).

What does the source list for `Cn1cnc2c(NC3CCCC3)ncnc21`?
AC50 (Cytochrome P450 2D6): 20 µM (inconclusive); AC50 (Cytochrome P450 3A4): 25.1 µM (inconclusive); AC50 [15]: 1.41 µM (inconclusive)

With `Nc1c(Cl)cc(Cl)cc1C(=O)OCC(=O)N1CCCC1` as the molecule, how does the EC50 (Kallikrein-7) read?
Its EC50 is > 69.5 µM (inactive).

With `C[C@H]1CN([C@@H](C)CO)C(=O)c2cc(/C=C/c3ccccc3)cnc2O[C@@H]1CN(C)C(=O)C1CCCCC1` as the molecule, how does the AC50 [1] read?
Its AC50 is 0.905 µM (active).

And the AC50 [2]?
Its AC50 is > 100 µM (inactive).

What about the AC50 [3] of the same molecule?
The AC50 was 82 nM (active).

And the AC50 [4]?
Its AC50 is 540 nM (active).

What about the AC50 [5] of the same molecule?
The AC50 was 291 nM (active).

And the AC50 [6]?
Its AC50 is 464 nM (active).

With `COc1ccc(C(CCNCc2ccccc2)c2ccc(F)cc2)cc1` (configuration not stated) as the molecule, how does the CC50 [11] read?
Its CC50 is 11.7 µM (active).

What about the CC50 [12] of the same molecule?
Its CC50 is 14.6 µM (active).

And the CC50 [13]?
Its CC50 is 18 µM (active).

And the EC50 [16]?
The EC50 was > 260 µM (inactive).

What about the IC50 (cells) of the same molecule?
Its IC50 is 18.7 µM (active).
